Laboratory results reported in patent US6008230A, “Quinoline compounds as H^+ -ATPases” (Fujisawa Pharmaceutical Co., Ltd., priority 1995, dated 1999).
Counter-ions that a name gives are not always drawn.

Tests used:
[1] = test system: vacuolar type H^+ -ATPase; assay: Inhibition of vacuolar type H^+ -ATPase proton transport; type: biochemical; details: microsomes from mouse peritoneal macrophages; acridine orange uptake; concentration 1×10^-6 M; pH 7.0
Procedure: Test 1 (Inhibition of vacuolar type H^+ -ATPase proton transport): Test Method (a) Preparation of microsomes from mouse peritoneal macrophages Seven-week-old male ddY mice were injected intraperitoneally with 2 ml of 3% thioglycolate medium. After 3-5 days, the mice were decapitated, and the peritoneal macrophages were obtained by peritoneal lavage with 5-6 ml of Hanks' balanced salt solution (HBSS). The cells were washed twice with cold HBSS. Vesicles were prepared from the cells, homogenized in a Douncee homogenizer (20 strokes) in 10 ml of 250 mM sucrose, 5 mM Tris, 1 mM EGTA, 1 mM KHCO3 and 1 mM dithiothreitol, pH 7.0, at 4° C. After an initial centrifugation (1000× g for 5 minutes), the supernatant was centrifuged 6000× g for 15 minutes) to remove mitochondria and lysosomes. The supernatant was centrifuged at 42000× g for 30 minutes, and microsomal pellet was collected and stored at -80° C. (b) Measurement of proton transport Proton transport was assayed with a dual-wavelength spectrophotometer by monitering uptake of acridine orange (Reference 540 nm, Measurement 492 nm) [H. C. Blair, J. Cell. Biol., 102, 1164 (1986)] with aliquot of membrane vesicles suspended in […] of assay buffer containing 150 mM KCl, 10 mM bis-tris-propane, 2 mM MgCl2, […], […] oligomycin and test compounds (concentration: 1×10^-6 M), pH 7.0. The reaction was initiated by addition of 1 mM ATP. Results were expressed as the percent of control.

[2] = test system: PTH-induced bone resorption (calvariae from Wistar rats); assay: Bone organ culture: inhibition of PTH-induced bone resorption; type: cell-based; details: 144 h; Wistar rat calvariae; 10^-8 M human PTH (1-34); concentration 1×10^-6 M; six days
Procedure: Test 2 (Bone organ culture) Test Method […] In control dishes, PTH was not added. Control and PTH control were exposed to an equivalent concentration of the vehicle. Six days later, the concentration of calcium ((Ca]) in the medium was measured by methylxylenol blue method and the percentage of inhibition of PTH-induced bone resorption was calculated according to following formula [formula] Cp: [Ca] in PTH control dishes CD: [Ca] in the test compound dishes C0 : [Ca] in control dishes

Inhibition (%) of vacuolar type H^+ -ATPase proton transport [1] | Structure (SMILES) | inhibition at 1 µM [2]
97% | O=C(Nc1cccc2c(-n3cccn3)ccnc12)c1c(Cl)cccc1Cl [85-(2) (free), 8-(2,6-Dichlorobenzoylamino)-4-(pyrazol-1-yl)quinoline] | 100%
100% | C#Cc1cnc2c(NC(=O)c3c(Cl)cccc3Cl)cccc2c1 [Example 5, 8-(2,6-dichlorobenzoylamino)-3-ethynylquinoline] | 98%
93% | C=Cc1cnc2c(NC(=O)c3c(Cl)cccc3Cl)cccc2c1CC(=O)NCc1ccccn1 [71-(2), 8-(2,6-dichlorobenzoylamino)-4-[(pyridin-2-ylmethyl)carbamoylmethyl]-3-vinylquinoline] | 100%
100% | Cl.N#Cc1cnc2c(NC(=O)c3c(Cl)cccc3Cl)cccc2c1Cn1ccnc1 [52 (hydrochloride), 3-cyano-8-(2,6-dichlorobenzoylamino)-4-(imidazol-1-ylmethyl)quinoline hydrochloride] | 100%
94% | C=CCc1cnc2c(NC(=O)c3c(Cl)cccc3Cl)cccc2c1Sc1ncc[nH]1 [28 (dihydrochloride), 8-(2,6-Dichlorobenzoylamino)-4-(imidazol-2-ylthio)-3-allylquinoline] | 100%
